Results as given in article PMC8580996, “2-Oxoglutarate derivatives can selectively enhance or inhibit the activity of human oxygenases” (Nature Communications, 2021).
“And” between values parts separate entries of the source, which are not always exact repeats. Equal entries are not always repeated. One block for each molecule: values may come before it.

Assays:
FIH [1] = biological target: T1, FIH (Homo sapiens, UniProt Q9NWT6); experiment: FIH steady-state kinetic parameters (SPE-MS, initial hydroxylation rates); assay type: biochemical; parameters: slope of initial reaction rate: unit not given here
T1 sequence (Q9NWT6 whole entry): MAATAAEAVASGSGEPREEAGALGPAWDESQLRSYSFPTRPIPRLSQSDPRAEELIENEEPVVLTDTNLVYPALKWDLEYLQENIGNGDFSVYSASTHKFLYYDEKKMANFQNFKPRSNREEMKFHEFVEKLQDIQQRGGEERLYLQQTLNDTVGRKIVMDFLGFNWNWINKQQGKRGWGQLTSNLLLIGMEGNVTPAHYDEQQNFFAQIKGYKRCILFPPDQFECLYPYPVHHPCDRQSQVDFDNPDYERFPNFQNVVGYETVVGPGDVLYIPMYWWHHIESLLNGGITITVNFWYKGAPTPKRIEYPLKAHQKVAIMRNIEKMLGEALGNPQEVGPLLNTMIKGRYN
Description: Final 2OG/2OG derivative concentrations are given in Supplementary Figs. 5 and 6. Reactions were monitored with a rate of ~1 sample/40 s using the same SPE-MS configuration as described above. Data were analyzed as described above and the slopes of the initial reaction rates (Supplementary Figs. 5 and 6) fitted to a Michaelis–Menten plot using non-linear regression (GraphPad Prism 5). […]
determine kinetic parameters for 2OG derivatives (continues on the following page). Maximum velocities (vapp ) and Michaelis constants (Kapp) of FIH were determined in independent triplicates for 2OG and the 2OG […]
SPE-MS as described in the Methods section. […]
acid (LAA), and 20 μM ammonium iron(II) sulfate hexahydrate (FAS, (NH4)2Fe(SO4)2·6H2O) in buffer (50 mM […]
Tris, 50 mM NaCl, pH 7.5, 20° C). […]
data are provided as a Source Data file. […]
concentrations of 2OG; (b) hydroxylation rates used to determine kinetic parameters of FIH for 2OG; (c) time […]
3-methyl-2OG (1); (d) hydroxylation rates used to determine kinetic parameters of FIH for 1; (e) time course of […]
2OG (12); (f) hydroxylation rates used to determine kinetic parameters of FIH for 12; (g) time course of the FIH- […]
(h) hydroxylation rates used to determine kinetic parameters of FIH for 14; (i) time course of the FIH-catalyzed […]
(carboxycarbonyl)cyclopentane-1-carboxylic acid (22); (j) hydroxylation rates used to determine kinetic parameters of FIH for 22.
Supplementary Figure 6. Hydroxylation rates of FIH-catalyzed CA1-20 hydroxylations used to determine kinetic parameters for 2OG derivatives (continues on the following page). Maximum velocities (vapp ) and […]
ammonium iron(II) sulfate hexahydrate (FAS, (NH4)2Fe(SO4)2·6H2O) in buffer (50 mM Tris, 50 mM NaCl, pH […]
Source data are provided as a Source […]
of 2OG; (b) hydroxylation rates used to determine kinetic parameters of FIH for 2OG; (c) time course of the FIH-catalyzed hydroxylation reaction of the CA1-20 peptide for the shown concentrations of 3-methyl-2OG (1); (d) hydroxylation rates used to determine kinetic parameters of FIH for 1; (e) time course of the FIH -catalyzed hydroxylation reaction of the CA 1-20 peptide for the shown concentrations of 4 -methyl-2OG (12); (f) hydroxylation rates used to determine kinetic parameters of FIH for 12; (g) time course of the FIH-catalyzed hydroxylation reaction of the CA1-20 peptide for the shown concentrations of 4-ethyl-2OG (14); (h) hydroxylation rates used to determine kinetic parameters of FIH for 14; (i) time course of the FIH-catalyzed hydroxylation reaction of the CA1-20 peptide for the shown concentrations of 3-(carboxycarbonyl)cyclopentane-1-carboxylic acid (22); (j) hydroxylation rates used to determine kinetic parameters of FIH for 22.

FIH [2] = biological target: T1, FIH; experiment: SPE-MS FIH turnover (cosubstrate) assay in the absence of 2OG; assay type: biochemical; settings: 330 μM 2OG or 2OG derivative, no 2OG, t = 15 min
Description: The ability of 35 synthetic C3/C4-substituted 2OG derivatives, which were prepared via a reported procedure (Supplementary Fig. 1 and Supplementary Methods)[21], to sustain catalysis by purified recombinant FIH in the absence of 2OG was examined using an assay directly monitoring substrate depletion and product formation (i.e., a +16 Da mass shift) by solid-phase extraction (SPE) coupled to mass spectrometry (SPE-MS)[44],[45]. […] (i.e. CA1–20)[47], were used as FIH substrates to test for potential substrate-dependent differences in terms of cosubstrate analog selectivity.
Assay samples were aspirated under vacuum for 0.6 s and loaded onto a C4 SPE cartridge. After loading, the C4 SPE cartridge was washed with 0.1%v/v aqueous formic acid to remove non-volatile buffer salts (5.5 s, 1.5 mL/min). […] The mass spectrometer was operated using the MassHunter Workstation B.08.00 software (Agilent), the mass spectrometer parameters were: capillary voltage (4000 V), nozzle voltage (1000 V), fragmentor voltage (365 V), gas temperature (280 °C), gas flow (13 L/min), sheath gas temperature (350 °C), sheath gas flow (12 L/min). […] Data were exported into Microsoft Excel and used to calculate the % conversion of the hydroxylation reaction using the equation: % conversion = 100 × (integral product peptide)/(integral substrate peptide+integral product peptide). […] Z′-factors were calculated according to the cited literature using Microsoft Excel (Supplementary Fig. 26)[83].

slope of initial reaction rate (FIH [1]; CA1-20, 0.25 μM 2OG): 0.01003 and 0.007495
slope of initial reaction rate (FIH [1]; CA1-20, 0.5 μM 2OG): 0.01547 and 0.01452 and 0.0138
slope of initial reaction rate (FIH [1]; CA1-20, 1 μM 2OG): 0.01838 and 0.01865 and 0.02116
slope of initial reaction rate (FIH [1]; CA1-20, 2 μM 2OG): 0.02416 and 0.02022 and 0.02356
slope of initial reaction rate (FIH [1]; CA1-20, 4 μM 2OG): 0.02388 and 0.01977 and 0.02365
slope of initial reaction rate (FIH [1]; CA1-20, 8 μM 2OG): 0.02261 and 0.02524
slope of initial reaction rate (FIH [1]; HIF-1a788-822, 0.1 μM 2OG): 0.000581 and 0.000778 and 0.00072
slope of initial reaction rate (FIH [1]; HIF-1a788-822, 0.25 μM 2OG): 0.001141 and 0.001302 and 0.001382
slope of initial reaction rate (FIH [1]; HIF-1a788-822, 0.5 μM 2OG): 0.001962 and 0.002167 and 0.002275
slope of initial reaction rate (FIH [1]; HIF-1a788-822, 1 μM 2OG): 0.003115 and 0.003005 and 0.00301
slope of initial reaction rate (FIH [1]; HIF-1a788-822, 2 μM 2OG): 0.00418 and 0.004157 and 0.004411
slope of initial reaction rate (FIH [1]; HIF-1a788-822, 4 μM 2OG): 0.004637 and 0.004674 and 0.005127
slope of initial reaction rate (FIH [1]; HIF-1a788-822, 8 μM 2OG): 0.004319 and 0.005019 and 0.005929
slope of initial reaction rate (FIH [1]; HIF-1a788-822, 16 μM 2OG): 0.00539 and 0.005468 and 0.006359
slope of initial reaction rate (FIH [1]; HIF-1a788-822, 32 μM 2OG): 0.006447 and 0.005635
FIH Kmapp (FIH [1]; HIF-1α788–822 substrate): 0.84 µM
FIH activity, %-substrate conversion (FIH [2]; CA1–20 substrate): > 95%
FIH activity, %-substrate conversion (FIH [2]; HIF-1α788–822 substrate): ~50%
SMILES: O=C(O)CCC(=O)C(=O)O [2OG, 2-Oxoglutarate]

SPE-MS determined concentration of hydroxylated HIF-1a peptide (FIH [1]; 0.5 uM compound 1, time 2.098 min): 0.06331 µM and 0.08965 µM and 0.06287 µM
SPE-MS determined concentration of hydroxylated HIF-1a peptide (FIH [1]; 0.5 uM compound 1, time 2.797 min): 0.08372 µM and 0.1109 µM and 0.07695 µM
SPE-MS determined concentration of hydroxylated HIF-1a peptide (FIH [1]; 0.5 uM compound 1, time 3.49667 min): 0.08826 µM and 0.1256 µM and 0.08643 µM
SPE-MS determined concentration of hydroxylated HIF-1a peptide (FIH [1]; 1 uM compound 1, time 0.699833 min): 0.05043 µM and 0.061 µM and 0.05097 µM
SPE-MS determined concentration of hydroxylated HIF-1a peptide (FIH [1]; 1 uM compound 1, time 2.098 min): 0.09957 µM and 0.1098 µM and 0.1306 µM
SPE-MS determined concentration of hydroxylated HIF-1a peptide (FIH [1]; 1 uM compound 1, time 2.797 min): 0.1199 µM and 0.1466 µM and 0.1681 µM
SPE-MS determined concentration of hydroxylated HIF-1a peptide (FIH [1]; 1 uM compound 1, time 3.49667 min): 0.1336 µM
SPE-MS determined concentration of hydroxylated HIF-1a peptide (FIH [1]; 2 uM compound 1, time 0.699833 min): 0.07885 µM and 0.08056 µM and 0.05916 µM
SPE-MS determined concentration of hydroxylated HIF-1a peptide (FIH [1]; 2 uM compound 1, time 2.098 min): 0.1678 µM and 0.1886 µM and 0.1681 µM
SPE-MS determined concentration of hydroxylated HIF-1a peptide (FIH [1]; 2 uM compound 1, time 2.797 min): 0.2164 µM and 0.22 µM and 0.1894 µM
SPE-MS determined concentration of hydroxylated HIF-1a peptide (FIH [1]; 2 uM compound 1, time 3.49667 min): 0.2473 µM and 0.2744 µM and 0.2266 µM
SPE-MS determined concentration of hydroxylated HIF-1a peptide (FIH [1]; 4 uM compound 1, time 0.699833 min): 0.1172 µM and 0.1135 µM and 0.107 µM
SPE-MS determined concentration of hydroxylated HIF-1a peptide (FIH [1]; 4 uM compound 1, time 2.098 min): 0.2558 µM and 0.2656 µM and 0.234 µM
SPE-MS determined concentration of hydroxylated HIF-1a peptide (FIH [1]; 4 uM compound 1, time 2.797 min): 0.3116 µM and 0.3222 µM and 0.2973 µM
SPE-MS determined concentration of hydroxylated HIF-1a peptide (FIH [1]; 4 uM compound 1, time 3.49667 min): 0.3622 µM and 0.3831 µM and 0.3473 µM
SPE-MS determined concentration of hydroxylated HIF-1a peptide (FIH [1]; 8 uM compound 1, time 0.699833 min): 0.1456 µM and 0.1338 µM and 0.1272 µM
SPE-MS determined concentration of hydroxylated HIF-1a peptide (FIH [1]; 8 uM compound 1, time 2.098 min): 0.3135 µM and 0.3095 µM and 0.2806 µM
SPE-MS determined concentration of hydroxylated HIF-1a peptide (FIH [1]; 8 uM compound 1, time 2.797 min): 0.4067 µM and 0.3823 µM and 0.3379 µM
SPE-MS determined concentration of hydroxylated HIF-1a peptide (FIH [1]; 8 uM compound 1, time 3.49667 min): 0.4757 µM and 0.4602 µM and 0.409 µM
SPE-MS determined concentration of hydroxylated HIF-1a peptide (FIH [1]; 16 uM compound 1, time 0.699833 min): 0.1765 µM and 0.1666 µM and 0.1574 µM
SPE-MS determined concentration of hydroxylated HIF-1a peptide (FIH [1]; 16 uM compound 1, time 2.098 min): 0.4139 µM and 0.367 µM and 0.3575 µM
SPE-MS determined concentration of hydroxylated HIF-1a peptide (FIH [1]; 16 uM compound 1, time 2.797 min): 0.521 µM and 0.462 µM and 0.4549 µM
SPE-MS determined concentration of hydroxylated HIF-1a peptide (FIH [1]; 16 uM compound 1, time 3.49667 min): 0.6245 µM and 0.5486 µM and 0.5372 µM
SPE-MS determined concentration of hydroxylated HIF-1a peptide (FIH [1]; 32 uM compound 1, time 0.699833 min): 0.1826 µM and 0.1844 µM and 0.1573 µM
SPE-MS determined concentration of hydroxylated HIF-1a peptide (FIH [1]; 32 uM compound 1, time 2.098 min): 0.3964 µM and 0.4231 µM and 0.3597 µM
SPE-MS determined concentration of hydroxylated HIF-1a peptide (FIH [1]; 32 uM compound 1, time 2.797 min): 0.4756 µM and 0.5305 µM and 0.4654 µM
SPE-MS determined concentration of hydroxylated HIF-1a peptide (FIH [1]; 32 uM compound 1, time 3.49667 min): 0.5827 µM and 0.6364 µM and 0.5668 µM
slope of initial reaction rate (FIH [1]; CA1-20, 1 μM 1): 0.003599 and 0.003561 and 0.003828
slope of initial reaction rate (FIH [1]; CA1-20, 2 μM 1): 0.005878 and 0.006514 and 0.003549
slope of initial reaction rate (FIH [1]; CA1-20, 4 μM 1): 0.007274 and 0.005274 and 0.008096
slope of initial reaction rate (FIH [1]; CA1-20, 8 μM 1): 0.01215 and 0.01007 and 0.00891
slope of initial reaction rate (FIH [1]; HIF-1a788-822, 0.5 μM 1): 0.000467 and 0.000683 and 0.000488
slope of initial reaction rate (FIH [1]; HIF-1a788-822, 1 μM 1): 0.000739 and 0.000996 and 0.000679
slope of initial reaction rate (FIH [1]; HIF-1a788-822, 2 μM 1): 0.001185 and 0.001312 and 0.001139
slope of initial reaction rate (FIH [1]; HIF-1a788-822, 4 μM 1): 0.001713 and 0.001863 and 0.001678
slope of initial reaction rate (FIH [1]; HIF-1a788-822, 8 μM 1): 0.002198 and 0.002166 and 0.001912
slope of initial reaction rate (FIH [1]; HIF-1a788-822, 16 μM 1): 0.002859 and 0.002469 and 0.002609
slope of initial reaction rate (FIH [1]; HIF-1a788-822, 32 μM 1): 0.002446 and 0.002883 and 0.002629
FIH activity, %-substrate conversion (FIH [2]; CA1–20 substrate): > 90%
FIH activity, %-substrate conversion (FIH [2]; HIF-1α788–822 substrate): ~55%
SMILES: CC(CC(=O)O)C(=O)C(=O)O (stereo not drawn) [compound 1, 3-methyl-2OG]

FIH activity, %-substrate conversion (FIH [2]; CA1–20 substrate): ^c<1% ^d<1%
FIH activity, %-substrate conversion (FIH [2]; HIF-1α788–822 substrate): ^c<1% ^d<1%
SMILES: O=C(O)C(=O)CC(CCCc1ccccc1)C(=O)O (stereo not drawn) [compound 18, 4-(3-phenylpropyl)-2OG]
